According to patent publication US20180215781A1, “BETUIN DERIVATIVES FOR PREVENTING OR TREATING HIV INFECTIONS” (GLAXOSMITHKLINE INTELLECTUAL PROPERTY (NO.2) LIMITED, priority 2015, published 2018):
Structures can show the parent of a compound that is named as a salt.

Key:
HIV = conditions: cited from earlier work
NL4-3 wt = experiment: MT4 Cell Antiviral Assay, NL4-3 wt; format: cell-based, HIV-1; conditions: Human immunodeficiency virus 1, NL43, HIV MT4 Antiviral Cell Assay of Example 11
V370A = experiment: MT4 Cell Antiviral Assay, V370A; format: cell-based, HIV-1; conditions: Human immunodeficiency virus 1, MT4, read-out: EC50V370A

SMILES | reduced HIV viral load, mean (HIV; patients with trough levels >=20 μg/mL and without key baseline Gag polymorphisms at Q369, V370 or T371) | viral load reductions versus patients without Gag polymorphisms (HIV; users with Gag polymorphisms at Q369, V370 or T371) | EC50 (NL4-3 wt) | EC50 (V370A)
C=C(C)[C@@H]1CC[C@]2(C(=O)O)CC[C@]3(C)[C@H](CC[C@@H]4[C@@]5(C)CC[C@H](OC(=O)CC(C)(C)C(=O)O)C(C)(C)[C@@H]5CC[C@]43C)[C@@H]12 [Bevirimat] | 1.3 log10/mL | significantly lower load reductions | – | –
COCC(=O)N(CC1CC1)C[C@H](O)[C@@]12CC[C@]3(C)[C@H](CC[C@@H]4[C@@]5(C)CC=C(C6=CCC(C(=O)O)CC6)C(C)(C)[C@@H]5CC[C@]43C)C1=C(C(C)C)C(=O)C2 (stereo partly drawn) [Example 1, 4-((3aR,5aR,5bR,7aR,11aS, 11bR,13aS)-3a-((R)-2-(N-(cyclopropylmethyl)-2-methoxyacetamido)-1-hydroxyethyl)-1-isopropyl-5a,5b,8,8,11a-pentamethyl-2-oxo-3,3a,4,5,5a,5b,6,7,7a,8, 11,11a,11b,12,13,13a-hexadecahydro-2H-cyclopenta[a]chrysen-9-yl)cyclohex-3-enecarboxylic acid] | – | – | 7.9 nM | 8.9 nM
CC(C)C1=C2[C@H]3CC[C@@H]4[C@@]5(C)CC=C(C6=CCC(C(=O)O)CC6)C(C)(C)[C@@H]5CC[C@@]4(C)[C@]3(C)CC[C@@]2([C@@H](O)CN(CC2CC2)C(=O)CN(C)C)CC1=O (stereo partly drawn) [Example 2, 4-((3aR,5aR,5bR,7aR,11aS, 11bR,13aS)-3a-((R)-2-(N-(cyclopropylmethyl)-2-(dimethylamino)acetamido)-1-hydroxyethyl)-1-isopropyl-5a,5b,8,8,11a-pentamethyl-2-oxo-3,3a,4,5,5a,5b,6,7,7a,8, 11,11a,11b,12,13,13a-hexadecahydro-2H-cyclopenta[a]chrysen-9-yl)cyclohex-3-enecarboxylic acid] | – | – | 5.4 nM | 11.2 nM
CC(C)C1=C2[C@H]3CC[C@@H]4[C@@]5(C)CC=C(C6=CCC(C(=O)O)CC6)C(C)(C)[C@@H]5CC[C@@]4(C)[C@]3(C)CC[C@@]2([C@@H](O)CN(CC2CC2)C(=O)CN2CCCC2)CC1=O (stereo partly drawn) [Example 3, 4-((3aR,5aR,5bR,7aR,11aS, 11bR,13aS)-3a-((R)-2-(N-(cyclopropylmethyl)-2-(pyrrolidin-1-yl)acetamido)-1-hydroxyethyl)-1-isopropyl-5a,5b,8,8,11a-pentamethyl-2-oxo-3,3a,4,5,5a,5b,6,7,7a,8, 11,11a,11b,12,13,13a-hexadecahydro-2H-cyclopenta[a]chrysen-9-yl)cyclohex-3-enecarboxylic acid] | – | – | 3.3 nM | 3.7 nM
CC(C)C1=C2[C@H]3CC[C@@H]4[C@@]5(C)CC=C(C6=CCC(C(=O)O)CC6)C(C)(C)[C@@H]5CC[C@@]4(C)[C@]3(C)CC[C@@]2([C@@H](O)CN(CC2CC2)C(=O)CN2CCCC2=O)CC1=O (stereo partly drawn) [Example 4, 4-((3aR,5aR,5bR,7aR,11aS, 11bR,13aS)-3a-((R)-2-(N-(cyclopropylmethyl)-2-(2-oxopyrrolidin-1-yl)acetamido)-1-hydroxyethyl)-1-isopropyl-5a,5b,8,8,11a-pentamethyl-2-oxo-3,3a,4,5,5a,5b,6,7,7a,8, 11,11a,11b,12,13,13a-hexadecahydro-2H-cyclopenta[a]chrysen-9-yl)cyclohex-3-enecarboxylic acid] | – | – | 7.1 nM | 20.9 nM
COCC(=O)N(CC1CCC1)C[C@H](O)[C@@]12CC[C@]3(C)[C@H](CC[C@@H]4[C@@]5(C)CC=C(C6=CCC(C(=O)O)CC6)C(C)(C)[C@@H]5CC[C@]43C)C1=C(C(C)C)C(=O)C2 (stereo partly drawn) [Example 6, 4-((3aR,5aR,5bR,7aR,11aS, 11bR,13aS)-3a-((R)-2-(N-(cyclobutylmethyl)-2-methoxyacetamido)-1-hydroxyethyl)-1-isopropyl-5a,5b,8,8,11a-pentamethyl-2-oxo-3,3a,4,5,5a,5b,6,7,7a,8, 11,11a,11b,12,13,13a-hexadecahydro-2H-cyclopenta[a]chrysen-9-yl)cyclohex-3-enecarboxylic acid] | – | – | 10 nM | 20.4 nM
CC(C)C1=C2[C@H]3CC[C@@H]4[C@@]5(C)CC=C(C6=CCC(C(=O)O)CC6)C(C)(C)[C@@H]5CC[C@@]4(C)[C@]3(C)CC[C@@]2([C@@H](O)CN(CC2CCC2)C(=O)CN2CCCC2)CC1=O (stereo partly drawn) [Example 7, 4-((3aR,5aR,5bR,7aR,11aS, 11bR,13aS)-3a-((R)-2-(N-(cyclobutylmethyl)-2-(pyrrolidin-1-yl)acetamido)-1-hydroxyethyl)-1-isopropyl-5a,5b,8,8,11a-pentamethyl-2-oxo-3,3a,4,5,5a,5b,6,7,7a,8, 11,11a,11b,12,13,13a-hexadecahydro-2H-cyclopenta[a]chrysen-9-yl)cyclohex-3-enecarboxylic acid] | – | – | 5.8 nM | 4.1 nM
CC(C)C1=C2[C@H]3CC[C@@H]4[C@@]5(C)CC=C(C6=CCC(C(=O)O)CC6)C(C)(C)[C@@H]5CC[C@@]4(C)[C@]3(C)CC[C@@]2([C@@H](O)CN(CCN(C)C)Cc2ccc(Cl)cc2)CC1=O (stereo partly drawn) [Example 9, 4-((3aR,5aR,5bR,7aR,11aS, 11bR,13aS)-3a-((R)-2-((4-chlorobenzyl)(2-(dimethylamino)ethyl)amino)-1-hydroxyethyl)-1-isopropyl-5a,5b,8,8,11a-pentamethyl-2-oxo-3,3a,4,5,5a,5b,6,7,7a,8, 11,11a,11b,12,13,13a-hexadecahydro-2H-cyclopenta[a]chrysen-9-yl)cyclohex-3-enecarboxylic acid dihydrochloride] | – | – | 6.8 nM | 10.7 nM
CC(C)C1=C2[C@H]3CC[C@@H]4[C@@]5(C)CC=C(C6=CCC(C(=O)O)CC6)C(C)(C)[C@@H]5CC[C@@]4(C)[C@]3(C)CC[C@@]2([C@@H](O)CNCC2CC2)CC1=O (stereo partly drawn) [Example 10, 4-((3aR,5aR,5bR,7aR,11aS, 11bR,13aS)-3a-((R)-2-((cyclopropylmethyl)amino)-1-hydroxyethyl)-1-isopropyl-5a,5b,8,8,11a-pentamethyl-2-oxo-3,3a,4,5,5a,5b,6,7,7a,8, 11,11a,11b,12,13,13a-hexadecahydro-2H-cyclopenta[a]chrysen-9-yl)cyclohex-3-enecarboxylic acid] | – | – | 9.3 nM | 25100 nM
